Results from patent publication US20020160441A1, “Protein elongation factor 2 as a target for antifungal and antiparasitic agents” (Merck & Co., Inc., priority 1998, published 2002).

Tests used:
[1] = biological target: T1, Saccharomyces cerevisiae EF2 in crude S30 extracts (Saccharomyces cerevisiae, UniProt P32324); assay: Competitive binding assay, Saccharomyces S30 extract; conditions: for displacement of ^3H-Compound I binding (in words): unlabelled competitor
T1 construct: A Saccharomyces cerevisiae strain containing wild-type EF2 is inoculated into medium; endogenous in cells; host or cells: Saccharomyces cerevisiae strain with wild-type EF2, S30 extract
T1 sequence (P32324 whole entry): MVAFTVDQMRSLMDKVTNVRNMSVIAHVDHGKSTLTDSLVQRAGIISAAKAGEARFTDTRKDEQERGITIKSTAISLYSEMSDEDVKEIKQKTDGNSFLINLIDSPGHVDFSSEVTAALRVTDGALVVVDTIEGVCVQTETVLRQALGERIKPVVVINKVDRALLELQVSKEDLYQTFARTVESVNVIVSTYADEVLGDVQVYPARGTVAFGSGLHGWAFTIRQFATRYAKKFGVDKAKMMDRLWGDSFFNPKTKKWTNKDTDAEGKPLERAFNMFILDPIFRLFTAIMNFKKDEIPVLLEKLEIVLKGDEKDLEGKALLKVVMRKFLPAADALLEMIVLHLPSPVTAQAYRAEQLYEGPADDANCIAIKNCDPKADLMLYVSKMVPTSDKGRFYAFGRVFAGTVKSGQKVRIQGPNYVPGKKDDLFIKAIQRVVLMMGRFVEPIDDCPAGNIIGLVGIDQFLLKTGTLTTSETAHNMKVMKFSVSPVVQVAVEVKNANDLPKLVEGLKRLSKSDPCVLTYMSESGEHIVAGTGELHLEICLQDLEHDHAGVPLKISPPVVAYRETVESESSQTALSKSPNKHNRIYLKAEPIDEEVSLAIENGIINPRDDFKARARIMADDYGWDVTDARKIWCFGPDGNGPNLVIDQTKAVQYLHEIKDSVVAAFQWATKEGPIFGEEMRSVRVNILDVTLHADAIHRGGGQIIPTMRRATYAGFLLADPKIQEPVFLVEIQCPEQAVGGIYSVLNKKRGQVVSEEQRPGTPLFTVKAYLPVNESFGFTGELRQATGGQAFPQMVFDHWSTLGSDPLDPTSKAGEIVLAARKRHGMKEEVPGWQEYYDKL
Experimental: (§1) A competitive assay can be performed involving the displacement of a radiolabeled compound with specificity for pathogen EF2 such as ^3H-Compound I binding to Saccharomyces cerevisiae EF2 in crude S30 extracts. As proof of the specificity of inhibitor found with the S30 binding assay, binding competition can also be performed with purified EF2 in the presence of washed ribosomes
In a microfuge tube 100 μl assay mixture contains: 10 μg yeast S-30, 25 μM GTP-γ-s (0.5 μl of 5 mM stock), dilutions of agent to be examined for ability to compete for binding and Buffer B to bring volume to 98 μl. Vortex and incubate at room temperature 5 min. Add 2 μl ^3H-Compound I (1:20 dilution in water). Vortex and incubate for 20-30 min.
To a Sephadex G-75 column was pre-soaked in Buffer A (20 gm/400 ml) several hours. Mini columns were packed with G-75 precisely to the mark line (˜1.6 ml ) and allowed to settle by washing with 2 ml Buffer A.
The 100μl incubated mixtures are loaded onto G-75 columns (no collection) As soon as the sample has entered the gel bed (approximately 20 sec), 0.7 ml Buffer A is added and eluate is collected in mini vials 3 ml Scintiverse is added and vials counted.
Saccharomyces S30 extract: A Saccharomyces cerevisiae strain containing wild-type EF2 is inoculated into medium containing in g/l: 10 g Bacto Yeast Extract, 20 g Bacto Peptone, 20 g dextrose and 60 mg adenine and incubated with shaking at 30° C. until mid to late logarithmic phase (A600˜2). The cells are harvested and washed twice with water. Pellets may be stored at −70° C. indefinitely prior to disruption. For breakage, cells are resuspended in 2 vol of buffer containing 50 mM Tris-Cl pH 7.4, 10% (wt/vol) glycerol, 2 mM MgCl2, 2 mM dithiothreitol, 1 mM phenylmethylsulfonyl fluoride and broken by prolonged agitation with acid-washed 0.5 mm glass beads. The supernatant is centrifuged at […] for 15 min to sediment cell debris.

[2] = test system: mammalian cell S30 extracts; assay: Binding assay with mammalian cell S30 extracts
Source text: as §1
(§2) The binding is displaceable by unlabelled L-793,422, sordarin and analogs. No binding is seen with mammalian cell or wheat germ S30 extracts.

[3] = test system: wheat germ S30 extracts; assay: Binding assay with wheat germ S30 extracts
Source text: as §1, §2

[4] = biological target: T2, purified Saccharomyces EF2 (Saccharomyces cerevisiae, UniProt P32324); assay: Binding assay with purified components, Saccharomyces EF2; conditions: for binding of labelled compound (in words): yeast EF2
T2 construct: The ribosomes and EF2 are both prepared by published methods; endogenous in cells; host or cells: Saccharomyces cerevisiae; EF2 purified by the method of Skogerson, Methods in Enzymology LX
T2 sequence (P32324 whole entry): as above
Experimental: (§3) This assay involves the same procedure as disclosed above substituting 0.4 A260 units salt-washed S. cerevisiae ribosomes and 1 pmol purified EF2 for the 10 μg S30 in the above assay. The ribosomes and EF2 are both prepared by published methods (L. Skogerson, Methods in Enzymology, Vol LX,p676-685).
(§4) As with the S30 binding assay, this assay may be used to either identify the component binding drug, or to examine competition by unknown agents.

[5] = biological target: T3, rat EF2 (Rattus norvegicus, UniProt P05197); assay: Binding assay with purified components, rat EF2; conditions: yeast EF2 replaced by rat (liver) EF2
T3 construct: from tissue; host or cells: rat liver
Experimental: as §3, §4

[6] = test system: wheat germ EF2; assay: Binding assay with purified components, wheat germ EF2; conditions: yeast EF2 replaced by wheat germ EF2
Experimental: as §3, §4

[7] = test system: S. cerevisiae sordarin sensitive strain (sS1); assay: Growth inhibition assay I, sordarin sensitive strain; format: cell-based; conditions: Saccharomyces cerevisiae; 0.5 μg applied; agar plate, 30° C., 16-24 hours; read-out: clear zone of inhibition
Source text: (§5) An assay has been developed to identify antifungal compounds with sordarin like activities using S. cerevisiae as as a surrogate organism. It consists of a two plate differential zone assay using sordarin sensitive (sS1) and resistant strains (sR1) that contain an erg6 deletion, which increases membrane permeability and facilitates the uptake of various substances. In this screen, active compounds show a clear zone on the sensitive strain plate and no zone for the resistant strain plate.
(§6) Approximately 1×10^6 cells per ml are added to growth medium containing 2% agar. Medium and cells are mixed, poured into plates, and allowed to solidify. Test compounds or fermentation extracts are applied with the intent of identifying samples which inhibit the growth of these yeast. The cultures are incubated at 30° C. for 16-24 hours. A similar assay can also be run in a high-throughput microtiter format by inoculating cells into liquid growth medium containing test compounds or fermentation extracts. Active compounds can be identified by assaying for growth inhibition, which can be determined by measuring the optical density of the individual cultures.

[8] = test system: S. cerevisiae sordarin resistant strain (sR1); assay: Growth inhibition assay I, sordarin resistant strain; format: cell-based, Saccharomyces cerevisiae; conditions: 0.5 μg applied; agar plate, 30° C., 16-24 hours
Source text: as §5, §6

Row | SMILES | displacement of ^3H-Compound I binding (in words) ([1]; Saccharomyces S30 extracts) | amount of labelled compound bound ([1]; 10 μg S30 extract from wild-type Saccharomyces) | binding of labelled compound (in words) ([1]; Saccharomyces S30 extracts) | binding of labelled compound (in words) [2] | binding of labelled compound (in words) [3] | amount of labelled compound bound ([4]; 0.65 pmol purified Saccharomyces EF2 plus 4 pmol purified Saccharomyces ribosomes) | binding of labelled compound (in words) ([4]; yeast ribosomes replaced by rat (liver) ribosomes, listed as 3H-L793,422) | binding of labelled compound (in words) ([4]; yeast ribosomes replaced by rat (liver) ribosomes, listed as labelled compound) | binding of labelled compound (in words) ([4]; yeast ribosomes replaced by wheat germ ribosomes, listed as 3H-L793,422) | binding of labelled compound (in words) ([4]; yeast ribosomes replaced by wheat germ ribosomes, listed as labelled compound) | binding of labelled compound (in words) ([5]; listed as 3H-L793,422) | binding of labelled compound (in words) ([5]; listed as labelled compound) | binding of labelled compound (in words) ([6]; listed as 3H-L793,422) | binding of labelled compound (in words) ([6]; listed as labelled compound) | IC50 ([1]; 10 μg S30 extract from wild-type Saccharomyces, read-out: IC50 for displacement of ^3H-Compound I binding (converted)) [nM] | zone of inhibition at 0.5 µg/disc [7] [mm] | zone of inhibition (in words) [8]
1 | CC(C)COCC12CC3C(C)CCC3[C@@]3(C=O)C[C@@H]1C=C(C(C)C)[C@@]23C(=O)O (stereo partly drawn) [Compound I] | displaceable | – | – | – | – | – | – | – | – | – | – | – | – | – | – | – | –
2 | CC(C)COCC12CC3C(C)CCC3[C@@]3(C=O)C[C@@H]1C=C(C(C)C)[C@@]23C(=O)O (stereo partly drawn) [^3H-Compound I] | – | approximately 0.5 pmol | Specific binding | No binding | No binding | approximately 0.6 pmol | no effect on binding | does not reduce binding | no effect on binding | does not reduce binding | abolishes binding | abolishes binding to background levels | abolishes binding | abolishes binding to background levels | – | – | –
3 | CO[C@H]1[C@@H](O)[C@H](O)[C@H](OC[C@@]23C[C@@H]4[C@H](C)CC[C@H]4[C@@]4(C=O)CC2C=C(C(C)C)[C@@]34C(=O)O)O[C@@H]1C [sordarin, reference compound] | displaceable | – | – | – | – | – | – | – | – | – | – | – | – | – | 6.09 | 20 | no zone
